Laboratory results published in US10555987B2, “GHRH agonists for the treatment of ischemic disorders” (UNIVERSITY OF MIAMI, priority 2012, dated 2020).
Values joined by “and” are separate entries in the source; they are usually repeats but may differ in a detail not shown here. Equal values may be shown once. Marks after values point to notes of the source that are not given here. Non-standard residues stand in square brackets, D forms with d. Residues, ends and D or L forms follow the SMILES beside them. *: point of attachment. Desaminotyrosyl = O=C(CCc1ccc(O)cc1)*; NMeY = CN[C@@H](Cc1ccc(O)cc1)C(=O)O; Agmatine = N=C(N)NCCCCN*; Nle = CCCC[C@H](N)C(=O)O; Orn = NCCC[C@H](N)C(=O)O; Abu = CC[C@H](N)C(=O)O

What was measured:
GHRH receptor = biological target: T1, GHRH receptor (Homo sapiens, UniProt Q02643); assay: Receptor binding in vitro, 125I-labeled [His1,Nle27]-hGHRH(1-32)NH2, membrane receptors of human anterior pituitary cells (Table 14); details: for Relative affinity (Binding potency) compared to JI-38: JI-38 = 1; for Relative affinity (Binding potency) compared to hGHRH(1-29): hGHRH(1-29)NH2 = 1
T1 sequence (Q02643 23-423): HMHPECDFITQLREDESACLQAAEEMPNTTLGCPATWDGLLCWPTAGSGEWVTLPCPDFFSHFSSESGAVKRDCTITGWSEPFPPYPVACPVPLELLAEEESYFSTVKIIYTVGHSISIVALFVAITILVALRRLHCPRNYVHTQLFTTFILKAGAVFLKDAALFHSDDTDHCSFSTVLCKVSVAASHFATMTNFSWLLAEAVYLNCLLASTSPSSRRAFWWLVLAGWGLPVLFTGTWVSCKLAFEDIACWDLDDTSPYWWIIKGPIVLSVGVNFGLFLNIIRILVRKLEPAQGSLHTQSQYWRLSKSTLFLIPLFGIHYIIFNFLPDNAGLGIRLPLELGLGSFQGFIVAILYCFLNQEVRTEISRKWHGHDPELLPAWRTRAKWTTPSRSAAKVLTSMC
Description: Normal human pituitary was purchased from the National Hormone and Peptide Program (UCLA Medical Center, Torrance, Calif.).

GH release = assay: GH releasing potency in vivo, subcutaneous administration (Example 14, Table 12); design: species or system rat; details: for Serum GH level at selected time after injection (ng/ml), 0 min / Serum GH level at selected time after injection (ng/ml), 15 min / Serum GH level at selected time after injection (ng/ml), 30 min: male rats, dose 3 μg/kg, mean ± SEM
Method in brief: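 Potency is expressed relative to GHRH(1-29)NH2 and JI-38 (each = 1), via equivalent GHRH(1-29)NH2 dose read from a standard curve. Peptides in 5% mannitol given i.v. or s.c. to anaesthetised male Sprague-Dawley rats (200-250 g); serum GH measured by ELISA at selected times.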

[1] = test system: myocardial infarction (Fisher-344 rats); assay: Hemodynamic analysis (pressure-volume loops), body and heart weight after MI, compared to JI-38 (Example 15, Table 16); assay type: in vivo, rat; design: key to ESP (End-Systolic Pressure) / EDP (End-Diastolic Pressure) / ESV (End-Systolic Volume) / PRSW (Preload Recruitable Stroke Work) / Ees (End-systolic Elastance) / dP/dt max (peak rate of the pressure rise) / dP/dt max_EDV / dP/dt min / TAU (relaxation time constant calculated by Weiss method) / SV (Stroke Volume) / CO (Cardiac Output) / SW (Stroke Work) / EF / Ea/Ees / Ea (arterial Elastance): ↓: downward arrow denotes lower than JI-38; ↑: upward arrow denotes greater than JI-38; =denotes same as JI-38; ⬇⬇: double arrow denotes greater effect; ⬆⬆: double arrow denotes greater effect; details: for CO (Cardiac Output) / EDP (End-Diastolic Pressure) / EF / ESP (End-Systolic Pressure) / ESV (End-Systolic Volume) / Ea (arterial Elastance) / Ea/Ees / Ees (End-systolic Elastance) / PRSW (Preload Recruitable Stroke Work) / SV (Stroke Volume) / SW (Stroke Work) / TAU (relaxation time constant calculated by Weiss method) / dP/dt max (peak rate of the pressure rise) / dP/dt max_EDV / dP/dt min: rat MI model, s.c. twice daily, pressure-volume loops, expressed in comparison to JI-38
Experimental: Rats were anesthetized by intramuscular injection of a mixture of ketamine (100 mg/kg), xylazine (20 mg/kg) and acepromazine (10 mg/kg). A 2-F micromanometer tipped catheter (SPR-838, Millar Instruments, Houston, Tex.) was inserted into the right carotid artery and advanced retrograde into the left ventricle. Measurements were calibrated by injecting a hypertonic saline (15%) bolus to determine extra-ventricular conductance; relative volume units were converted to actual volume using the cuvette calibration method. All analyses were performed using PVAN 3.0 software (Millar Instruments, Houston, Tex.).
Myocardial infarction (MI) was induced by permanent ligation of the left coronary artery in female 6-month-old Fisher-344 rats. Following experimental myocardial infarction (MI), rats were randomly assigned to receive either placebo, JI-38, or one of the following new analogs of GHRH: MR-30 l(P-21301), MR-303(P-21303), MR-356(P-20356), MR-502(25502), MR-350(P-20350), MR-36 l(P-20361), MR-367(P-20367), MR-403(P-27403), MR-404(P-27404), and MR-409(P-27409) (10 rats per each group). The GHRH peptide agonists were adminsistered starting 2 hours post-surgery, 1 week, 2 week, and 4 week intervals. All treatment was given subcutaneously twice daily. Cardiac performance was assessed by serial echocardiography and hemodynamic analysis derived from pressure-volume loops as described before.
The hemodynamic studies are shown in FIGS. 16-33 and the results are summarized in Table 16 (results were expressed in comparison to JI-38; downward arrow denotes lower than JI-38; upward arrow denotes greater than JI-38; =denotes same as JI-38; and double arrow denotes greater effect).

| Compound | Relative affinity (Binding potency) compared to JI-38 (GHRH receptor) | Relative affinity (Binding potency) compared to hGHRH(1-29) (GHRH receptor) | Serum GH level at selected time after injection (ng/ml), 0 min (GH release; s.c.) [ng/mL] | Serum GH level at selected time after injection (ng/ml), 15 min (GH release; s.c.) [ng/mL] | Serum GH level at selected time after injection (ng/ml), 30 min (GH release; s.c.) [ng/mL] | Relative potency compared to GHRH(1-29), 15 min (GH release; s.c.) | Relative potency compared to JI-38, 15 min (GH release; s.c.) | Relative potency compared to GHRH(1-29), 30 min (GH release; s.c.) | CO (Cardiac Output) [1] | EDP (End-Diastolic Pressure) [1] | EF [1] | ESP (End-Systolic Pressure) [1] | ESV (End-Systolic Volume) [1] | Ea (arterial Elastance) [1] | Ea/Ees [1] | Ees (End-systolic Elastance) [1] | PRSW (Preload Recruitable Stroke Work) [1] | SV (Stroke Volume) [1] | SW (Stroke Work) [1] | TAU (relaxation time constant calculated by Weiss method) [1] | also measured |
| --- | --- | --- | --- | --- | --- | --- | --- | --- | --- | --- | --- | --- | --- | --- | --- | --- | --- | --- | --- | --- | --- |
| CCCC[C@H](NC(=O)[C@@H](NC(=O)[C@H](CC(=O)O)NC(=O)[C@H](CCC(N)=O)NC(=O)[C@H](CC(C)C)NC(=O)[C@H](CC(C)C)NC(=O)[C@H](CCCN)NC(=O)[C@H](CCCNC(=N)N)NC(=O)[C@H](C)NC(=O)[C@H](CO)NC(=O)[C@H](CC(C)C)NC(=O)[C@H](CCC(N)=O)NC(=O)[C@H](CC)NC(=O)[C@H](CC(C)C)NC(=O)[C@@H](NC(=O)[C@H](CCCN)NC(=O)[C@H](CCCNC(=N)N)NC(=O)[C@H](Cc1ccc(O)cc1)NC(=O)[C@H](CO)NC(=O)[C@H](CC(N)=O)NC(=O)[C@@H](NC(=O)[C@H](Cc1ccccc1)NC(=O)[C@@H](NC(=O)[C@H](C)NC(=O)[C@H](CC(=O)O)NC(=O)[C@@H](C)NC(=O)[C@H](Cc1ccc(O)cc1)NC)[C@@H](C)CC)[C@@H](C)O)C(C)C)[C@@H](C)CC)C(=O)N[C@@H](CC(=O)O)C(=O)N[C@@H](CCCNC(=N)N)C(=O)NC [Peptide P-27409, [N—Me-Tyr^1, D-Ala^2, Orn^12, Abu^15, Orn^21, Nle^27, Asp^28]hGHRH(1-29)NH—CH3] (H-[NMeY][dA]DAIFTNSYR[Orn]VL[Abu]QLSAR[Orn]LLQDI[Nle]DR-NHMe) | 2.71 | 7.57 | 18.9 ± 3.1 | 427.4 ± 62.4 | 256.7 ± 20.7 | 141.3 | 2.24* | 380.6 | ⬆⬆ | ↑ | ⬆⬆ | ↑ | = | = | ↓ | ⬆⬆ | ⬆⬆ | = | = | = | GH-releasing potency after s.c. administration (in words) (GH release; s.c.): significantly higher potencies at 30 minutes than at 15 minutes; PRSW, index of contractility ([1]; after MI): markedly increased; dP/dt max (peak rate of the pressure rise) [1]: ⬆⬆; dP/dt max_EDV [1]: =; dP/dt min [1]: = |
| CCCC[C@H](NC(=O)[C@@H](NC(=O)[C@H](CC(=O)O)NC(=O)[C@H](CCC(N)=O)NC(=O)[C@H](CC(C)C)NC(=O)[C@H](CC(C)C)NC(=O)[C@H](CCCN)NC(=O)[C@H](CCCNC(=N)N)NC(=O)[C@H](C)NC(=O)[C@H](CO)NC(=O)[C@H](CC(C)C)NC(=O)[C@H](CCC(N)=O)NC(=O)[C@H](CC)NC(=O)[C@H](CC(C)C)NC(=O)[C@@H](NC(=O)[C@H](CCCN)NC(=O)[C@H](CCCNC(=N)N)NC(=O)[C@H](Cc1ccc(O)cc1)NC(=O)[C@H](CO)NC(=O)[C@H](CCC(N)=O)NC(=O)[C@@H](NC(=O)[C@H](Cc1ccccc1)NC(=O)[C@@H](NC(=O)[C@H](C)NC(=O)[C@H](CC(=O)O)NC(=O)[C@H](C)NC(=O)[C@H](Cc1ccc(O)cc1)NC)[C@@H](C)CC)[C@@H](C)O)C(C)C)[C@@H](C)CC)C(=O)N[C@@H](CC(=O)O)C(=O)NCCCCNC(=N)N [Peptide P-20356, [N—Me-Tyr^1, Gln^8, Orn^12, Abu^15, Orn^21, Nle^27, Asp^28, Agm^29]hGHRH(1-29) NH2] (H-[NMeY]ADAIFTQSYR[Orn]VL[Abu]QLSAR[Orn]LLQDI[Nle]D-Agmatine) | – | 7.50 | 25.3 ± 3.9 | 305.4 ± 40.0 | 152.4 ± 21.8 | 91.2 | – | 150.9 | = | = | = | = | = | ↑ | = | = | = | = | = | = | Relative affinity (Binding potency) compared to JI-38 (GHRH receptor; listed as MR-356): 2.7 and 2.69; GHRH receptor binding affinity (in words) (GHRH receptor; compared to JI-38): improved receptor binding affinity; potency as compared to JI-38 in both i.v. and s.c. tests (GH release; both i.v. and s.c. tests): increased potency as compared to JI-38; Relative potency compared to JI-38, 15 min (GH release; s.c., listed as MR-356): 1.4 and 1.45; Relative potency compared to JI-38, 30 min (GH release; s.c., listed as MR-356): 1.4 and 1.35; dP/dt max (peak rate of the pressure rise) [1]: =; dP/dt max_EDV [1]: =; dP/dt min [1]: = |
| CCCC[C@H](NC(=O)[C@@H](NC(=O)[C@H](CC(=O)O)NC(=O)[C@H](CCC(N)=O)NC(=O)[C@H](CC(C)C)NC(=O)[C@H](CC(C)C)NC(=O)[C@H](CCCN)NC(=O)[C@H](CCCNC(=N)N)NC(=O)[C@H](C)NC(=O)[C@H](CO)NC(=O)[C@H](CC(C)C)NC(=O)[C@H](CCC(N)=O)NC(=O)[C@H](CC)NC(=O)[C@H](CC(C)C)NC(=O)[C@@H](NC(=O)[C@H](CCCN)NC(=O)[C@H](CCCNC(=N)N)NC(=O)[C@H](Cc1ccc(O)cc1)NC(=O)[C@H](CO)NC(=O)[C@H](CCC(N)=O)NC(=O)[C@@H](NC(=O)[C@H](Cc1ccccc1)NC(=O)[C@@H](NC(=O)[C@H](C)NC(=O)[C@H](CC(=O)O)NC(=O)[C@H](C)NC(=O)CCc1ccc(O)cc1)[C@@H](C)CC)[C@@H](C)O)C(C)C)[C@@H](C)CC)C(=O)N[C@@H](CC(=O)O)C(=O)NCCCCNC(=N)N [JI-38, [Dat^1, Gln^8, Orn^12,21, Abu^15, Nle^27, Asp^28, Agm^29]hGHRH(1-29)NH2, reference compound] (Desaminotyrosyl-ADAIFTQSYR[Orn]VL[Abu]QLSAR[Orn]LLQDI[Nle]D-Agmatine) | 1.00 | 2.79 | 33.2 ± 2.8 | 230.0 ± 15.1 | 128.7 ± 13.3 | 63.1 | 1.00 | 111.8 | – | – | – | – | – | – | – | – | – | – | – | – | Relative potency compared to JI-38, 30 min (GH release; s.c.): 1.00 |
